Patent US4656166A, “Antibiotic compounds derived from cephalosporins, process for their production and pharmaceutical compositions” (Sanofi, priority 1983, dated 1987)
≈ marks a conversion by molar mass, not a printed value. Read-outs that look alike come from different tables or passages of the source.

Legend:
Type in all cases: cell-based
[1] = test system: Serrtia liquefaciens SL/326 A; test: MIC on beta-lactamase producing strain Serratia liquefaciens SL/326 A (Table IV)
Method: (§1) To evaluate the stability of these products towards beta-lactamases, their MIC was determined on isogenic strains producing and not producing beta-lactamases.
(§2) The results are expressed in μg/ml in Table IV.

[2] = test system: Serrtia liquefaciens SL 1326 S; test: MIC on strain not producing beta-lactamase, Serratia liquefaciens SL 1326 S (Table IV); settings: SL1326S, not producing beta-lactamases
Method: as §1, §2

Serratia RL 72 = test: MIC, in vitro dilution method, Serratia RL 72 (Table III); settings: RL72
In short: (§3)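 MIC in μg/ml, taken as the minimum concentration giving bacteriostatic action in an in vitro dilution assay on Gram-negative bacteria.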

Escherichia coli SOL 90 = test: MIC, in vitro dilution method, Escherichia coli SOL 90 (Table III); settings: SOL90; Escherichia coli SOL 90; dilution method; read-out: MIC
In short: as §3

[3] = test system: Proteus vulgaris RL 99 bis; test: MIC, in vitro dilution method, Proteus vulgaris RL 99 bis (Table III); settings: Proteus vulgaris, RL99BIS
In short: as §3

Pseudomonas RL 112 = test: MIC, in vitro dilution method, Pseudomonas RL 112 (Table III); settings: RL112
In short: as §3

Escherichia coli 255/L.7 = test: MIC on strain not producing beta-lactamase, Escherichia coli 255/L.7 (Table IV); settings: Escherichia coli 255/L.7 *, not producing beta-lactamases; read-out: MIC
Method: as §1, §2

Escherichia coli 255 = test: MIC on beta-lactamase producing strain Escherichia coli 255 (Table IV)
Method: as §1, §2

Citrobacter RL 49 = test: MIC, in vitro dilution method, Citrobacter RL 49 (Table III); settings: RL49
In short: as §3

[4] = test system: Proteus vulgaris GN 76/C.1; test: MIC on beta-lactamase producing strain Proteus vulgaris GN 76/C.1 (Table IV); settings: GN76
Method: as §1, §2

[5] = test system: Proteus vulgaris GN 76/C.1/3; test: MIC on strain not producing beta-lactamase, Proteus vulgaris GN 76/C.1/3 (Table IV); settings: GN76, not producing beta-lactamases
Method: as §1, §2

Klebsiella RO 30 = test: MIC, in vitro dilution method, Klebsiella RO 30 (Table III); settings: RO30
In short: as §3

Enterobacter RO 154 = test: MIC, in vitro dilution method, Enterobacter RO 154 (Table III); settings: RO154; Enterobacter RO 154; dilution method; read-out: MIC
In short: as §3

[6] = Escherichia coli 255, producing beta-lactamases, read-out: MIC
[7] = Citrobacter RL 49, dilution method, read-out: MIC
[8] = Klebsiella RO 30, dilution method, read-out: MIC

| SMILES | MIC [1] [µg/mL] | MIC [2] [µg/mL] | MIC (Serratia RL 72) [µg/mL] | MIC (Escherichia coli SOL 90) [µg/mL] | MIC [3] [µg/mL] | MIC (Pseudomonas RL 112) [µg/mL] | MIC (Escherichia coli 255/L.7) [µg/mL] | MIC (Escherichia coli 255; [6]) [µg/mL] | MIC (Citrobacter RL 49; [7]) [µg/mL] | MIC ([4]; Proteus vulgaris) [µg/mL] | MIC [5] [µg/mL] | MIC (Klebsiella RO 30; [8]) [µg/mL] | MIC (Enterobacter RO 154) [µg/mL] | MIC ([4]; Proteus vulgaris GN 76/C.1, producing beta-lactamases, read-out: MIC) [µg/mL] | MIC (Escherichia coli 255; Escherichia coli, 255) [µg/mL] | MIC (Citrobacter RL 49; Citrobacter) [µg/mL] | MIC (Klebsiella RO 30; Klebsiella) [µg/mL] |
| --- | --- | --- | --- | --- | --- | --- | --- | --- | --- | --- | --- | --- | --- | --- | --- | --- | --- |
| CC(C)(ON=C(C(=O)NC1C(=O)N2C(C(=O)O)=C(COC(=O)c3ccc(NC(=O)CCN)cc3)C[S+]([O-])C12)c1csc(N)n1)C(=O)O (stereo not shown) [42 546] | 0.25 (≈ 0.361 µM) | ≤ 0.0312 | 1 (≈ 1.45 µM) | 0.25 (≈ 0.361 µM) | ≤ 0.125 | 4 (≈ 5.78 µM) | ≤ 0.0312 | 0.0625 (≈ 0.0904 µM) | 0.25 (≈ 0.361 µM) | ≤ 0.0312 | 0.125 (≈ 0.181 µM) | 0.25 (≈ 0.361 µM) | 0.25 (≈ 0.361 µM) | – | – | – | – |
| NCC(=O)Nc1nc(C(=O)OCC2=C(C(=O)O)N3C(=O)C(NC(=O)C(=NOC4(C(=O)O)CCC4)c4csc(N)n4)C3[S+]([O-])C2)cs1 (stereo not shown) [42 547] | 2 (≈ 2.87 µM) | 0.125 (≈ 0.179 µM) | 0.5 (≈ 0.718 µM) | 0.5 (≈ 0.718 µM) | ≤ 0.125 | 4 (≈ 5.74 µM) | ≤ 0.0312 | 0.125 (≈ 0.179 µM) | 0.25 (≈ 0.359 µM) | – | 0.25 (≈ 0.359 µM) | 0.25 (≈ 0.359 µM) | 0.5 (≈ 0.718 µM) | 0.0625 (≈ 0.0897 µM) | – | – | – |
| NCC(=O)Nc1ccc(C(=O)OCC2=C(C(=O)O)N3C(=O)C(NC(=O)C(=NOC4(C(=O)O)CCC4)c4csc(N)n4)C3[S+]([O-])C2)cc1 (stereo not shown) [42 548] | 0.125 (≈ 0.181 µM) | ≤ 0.0312 | 0.5 (≈ 0.725 µM) | 0.25 (≈ 0.362 µM) | ≤ 0.125 | 2 (≈ 2.9 µM) | ≤ 0.0312 | – | – | 0.0625 (≈ 0.0906 µM) | 0.0625 (≈ 0.0906 µM) | – | 0.25 (≈ 0.362 µM) | – | 0.625 (≈ 0.906 µM) | ≤ 0.125 | 0.125 (≈ 0.181 µM) |
| CC(C)(ON=C(C(=O)NC1C(=O)N2C(C(=O)O)=C(COC(=O)C3CCN(C(=O)CN)CC3)C[S+]([O-])C12)c1csc(N)n1)C(=O)O (stereo not shown) [42 549] | 0.125 (≈ 0.187 µM) | ≤ 0.0312 | 0.5 (≈ 0.747 µM) | 0.25 (≈ 0.373 µM) | ≤ 0.125 | 4 (≈ 5.97 µM) | 0.0625 (≈ 0.0933 µM) | 0.125 (≈ 0.187 µM) | – | ≤ 0.0312 | 0.0625 (≈ 0.0933 µM) | 0.25 (≈ 0.373 µM) | 0.25 (≈ 0.373 µM) | – | – | ≤ 0.125 | – |
